How the values were obtained:
[1] = system: gastric secretion (stomach of a male rat); assay: Inhibition of gastric secretion (tetragastrin-stimulated, perfused stomach of anesthetized rat; dose raising perfusate pH by 1.0); assay type: in vivo, Donryu strain); conditions: intravenous administration for 30 minutes; urethane-anesthetized rat; tetragastrine 10 μg/kg/hr
Procedure: The method employed was essentially same as described by M. N. Ghosh and H. O. Schild in British Journal of Pharmacology and Chemotherapy, vol. 13, 54-61 (1958). Through the stomach of a male rat (Donryu strain) anesthetized by administration of urethane was perfused a physiological saline solution containing a small amount of sodium hydroxide at a rate of 1 ml/min. Then 10 μg/kg/hr of a gastric secretion stimulating agent, tetragastrine, was continuously injected into the vein of said rat until pH of the outflowing perfusate reached approximately 3 and said value remained. Thereupon, a certain amount of the test compounds was administered at a certain rate into the vein for 30 minutes, and pH of the outflowing perfusate was measured. The measurement was repeated with variation of the administering amount.

[2] = system: bronchodilating activity in presence of a β-adrenergic blocking agent; assay: Inhibition of the bronchodilating activity by a β-adrenergic blocking agent
[3] = system: air-way resistance in guinea pigs; assay: Bronchodilating activity: inhibition of histamine-induced increase in air-way resistance (variant Konzett-Rossler method); assay type: in vivo, guinea pig; conditions: Cavia porcellus; intravenous (method; head prints i.r.); histamine 2 - 3 μg/kg i.v.; parentheses = 95% confidence limit; read-out: 50% Inhibition Dose (ID50) of increase of air-way resistance in guinea pigs
Procedure: The test compounds were administered through intravenous injection to a guinea pig (body weight: 400 - 600 g) anesthetized by administration of sodium pentobarbital, and 2 - 3 μg/kg of histamine was administered through intravenous injection. Inhibitory ratio of increase in air-way resistance was determined by the variant method of Konzett-Rossler method [Archiv fur Experimentelle Pathologie und Pharmakologie, vol. 195, 71 (1940)].

| Structure (SMILES) | Dose needed to increase the pH of the outflowing perfusate by 1.0 [1] | inhibition of bronchodilating activity by a β-adrenergic blocking agent (in words) [2] | ED50 [3] |
| --- | --- | --- | --- |
| CC(C)=CCCC(C)C[C@H](O)/C=C/[C@H]1[C@H](O)CC(=O)[C@@H]1C/C=C\CCCC(=O)O (relative stereo) [Compound B, 9-oxo-11α, 15α-dihydroxy-17β-methyl-20-isopropylideneprost-5-(cis), 13(trans)-dienoic acid] | 0.070 mg/kg/hr | – | – |
| CC(C)=CCCC(C)CC(O)/C=C/C1C(O)CC(=O)C1CCCCCCC(=O)O (stereo not drawn) [Compound A, 9-oxo-11α,15α-dihydroxy-17β-methyl-20-isopropylideneprost-13(trans)-enoic acid] | 0.074 mg/kg/hr | – | – |
| CC(C)NCC(O)c1ccc(O)c(O)c1 (stereo not shown) [Isoproterenol] | – | inhibits | – |
| CCCCC[C@H](O)/C=C/[C@H]1[C@H](O)CC(=O)[C@@H]1CCCCCCC(=O)O [PGE1, prostaglandin E1] | 0.086 mg/kg/hr | – | 0.14 µg/kg |
| CCCCC[C@H](O)/C=C/[C@H]1[C@H](O)CC(=O)[C@@H]1C/C=C\CCCC(=O)O [PGE2] | – | – | 0.21 µg/kg |
| CC(C)(C)NCC(O)c1ccc(O)c(CO)c1 (stereo not shown) [Salbutanol] | – | inhibits | – |
